According to the NIST ThermoML archive (doi:10.1016/j.jct.2015.09.029):

Assay: mn = molality of the nth substance listed, in mol/kg
Conditions: 100 kPa, Liquid; for viscosity: Capillary tube (Ostwald / Ubbelohde) method; for speed of sound: Frequency=2 MHz, Linear variable-path acoustic interferometer; for mass density: Vibrating tube method

CCCC[P+](CCCC)(CCCC)CCCC.[Cl-] [tetrabutylphosphonium chloride] + O
Conditions | mass density [kg/m3] | speed of sound [m/s] | viscosity [mPa·s]
298.15 K, m1 = 0.0249 | 996.83 | 1506.4 | 0.9234
298.15 K, m1 = 0.0773 | 996.44 | 1520 | 0.9925
298.15 K, m1 = 0.1592 | 995.93 | 1541.6 | 1.101
298.15 K, m1 = 0.2659 | 995.41 | 1567.7 | 1.241
298.15 K, m1 = 0.3842 | 994.99 | 1593.7 | 1.397
298.15 K, m1 = 0.4509 | 994.8 | 1607.4 | 1.486
298.15 K, m1 = 0.504 | 994.67 | 1617.5 | 1.556
298.15 K, m1 = 0.5771 | 994.5 | 1630.3 | 1.652
303.15 K, m1 = 0.0249 | 995.41 | 1518.2 | 0.8256
303.15 K, m1 = 0.0773 | 994.97 | 1532.4 | 0.8843
303.15 K, m1 = 0.1592 | 994.37 | 1551.9 | 0.9761
303.15 K, m1 = 0.2659 | 993.73 | 1575.2 | 1.095
303.15 K, m1 = 0.3842 | 993.17 | 1598.2 | 1.228
303.15 K, m1 = 0.4509 | 992.9 | 1610.1 | 1.302
303.15 K, m1 = 0.504 | 992.7 | 1619.5 | 1.362
303.15 K, m1 = 0.5771 | 992.42 | 1633.2 | 1.444
308.15 K, m1 = 0.0295 | 993.74 | 1529.8 | 0.7476
308.15 K, m1 = 0.0842 | 993.23 | 1541.2 | 0.7998
308.15 K, m1 = 0.1722 | 992.52 | 1559.9 | 0.8836
308.15 K, m1 = 0.2979 | 991.68 | 1585.8 | 1.004
308.15 K, m1 = 0.3554 | 991.35 | 1595.6 | 1.058
308.15 K, m1 = 0.4266 | 990.98 | 1607.8 | 1.126
308.15 K, m1 = 0.4508 | 990.86 | 1611.9 | 1.149
308.15 K, m1 = 0.5619 | 990.34 | 1628.9 | 1.255
313.15 K, m1 = 0.0295 | 991.9 | 1537.3 | 0.6773
313.15 K, m1 = 0.0842 | 991.36 | 1547.8 | 0.722
313.15 K, m1 = 0.1722 | 990.57 | 1566.5 | 0.7937
313.15 K, m1 = 0.2979 | 989.61 | 1588.4 | 0.8964
313.15 K, m1 = 0.3554 | 989.21 | 1597.3 | 0.9432
313.15 K, m1 = 0.4266 | 988.76 | 1607.8 | 1.001
313.15 K, m1 = 0.4508 | 988.61 | 1611.4 | 1.021
313.15 K, m1 = 0.5619 | 987.95 | 1627.3 | 1.112

CC(C)C[P+](C)(CC(C)C)CC(C)C.Cc1ccc(S(=O)(=O)[O-])cc1 [triisobutylmethylphosphonium p-toluenesulfonate] + O
Conditions | mass density [kg/m3] | speed of sound [m/s] | viscosity [mPa·s]
298.15 K, m1 = 0.0237 | 997.74 | 1507.2 | 0.9191
298.15 K, m1 = 0.0468 | 998.42 | 1513.7 | 0.9471
298.15 K, m1 = 0.0663 | 999 | 1518.8 | 0.9707
298.15 K, m1 = 0.0901 | 999.7 | 1524.8 | 0.9996
298.15 K, m1 = 0.1848 | 1002.5 | 1546.4 | 1.115
298.15 K, m1 = 0.2883 | 1005.48 | 1566.5 | 1.241
298.15 K, m1 = 0.3948 | 1008.42 | 1586.1 | 1.373
298.15 K, m1 = 0.4278 | 1009.28 | 1592.4 | 1.413
298.15 K, m1 = 0.478 | 1010.56 | 1601.7 | 1.475
298.15 K, m1 = 0.5156 | 1011.48 | 1608.3 | 1.522
303.15 K, m1 = 0.0237 | 996.31 | 1518.8 | 0.8224
303.15 K, m1 = 0.0468 | 996.97 | 1525.3 | 0.8466
303.15 K, m1 = 0.0663 | 997.53 | 1530.8 | 0.8669
303.15 K, m1 = 0.0901 | 998.21 | 1536.6 | 0.8919
303.15 K, m1 = 0.1848 | 1000.89 | 1555.9 | 0.9914
303.15 K, m1 = 0.2883 | 1003.76 | 1574.5 | 1.101
303.15 K, m1 = 0.3948 | 1006.58 | 1590.7 | 1.214
303.15 K, m1 = 0.4278 | 1007.42 | 1596.2 | 1.249
303.15 K, m1 = 0.478 | 1008.64 | 1604 | 1.302
303.15 K, m1 = 0.5156 | 1009.52 | 1609.4 | 1.343
308.15 K, m1 = 0.0253 | 994.73 | 1528.8 | 0.7415
308.15 K, m1 = 0.053 | 995.49 | 1536.4 | 0.7656
308.15 K, m1 = 0.0791 | 996.21 | 1541.7 | 0.7883
308.15 K, m1 = 0.1003 | 996.79 | 1545.6 | 0.8068
308.15 K, m1 = 0.2056 | 999.66 | 1566.2 | 0.8989
308.15 K, m1 = 0.2689 | 1001.35 | 1577.9 | 0.9546
308.15 K, m1 = 0.3193 | 1002.66 | 1587.2 | 0.999
308.15 K, m1 = 0.3643 | 1003.8 | 1592.7 | 1.039
308.15 K, m1 = 0.4345 | 1005.51 | 1602 | 1.101
308.15 K, m1 = 0.5175 | 1007.42 | 1612.8 | 1.175
313.15 K, m1 = 0.0253 | 992.9 | 1538.7 | 0.6717
313.15 K, m1 = 0.053 | 993.66 | 1545.1 | 0.692
313.15 K, m1 = 0.0791 | 994.36 | 1551.5 | 0.7111
313.15 K, m1 = 0.1003 | 994.92 | 1556.3 | 0.7266
313.15 K, m1 = 0.2056 | 997.66 | 1575.1 | 0.8042
313.15 K, m1 = 0.2689 | 999.26 | 1584.7 | 0.851
313.15 K, m1 = 0.3193 | 1000.5 | 1592.3 | 0.8883
313.15 K, m1 = 0.3643 | 1001.59 | 1598.1 | 0.9218
313.15 K, m1 = 0.4345 | 1003.25 | 1607.3 | 0.9741
313.15 K, m1 = 0.5175 | 1005.14 | 1617.1 | 1.036

CCCC[P+](C)(CCCC)CCCC.COS(=O)(=O)[O-] [tributylmethylphosphonium methyl sulfate] + O
Conditions | mass density [kg/m3] | speed of sound [m/s] | viscosity [mPa·s]
298.15 K, m1 = 0.0282 | 997.65 | 1504.7 | 0.9199
298.15 K, m1 = 0.0438 | 997.98 | 1507.9 | 0.9362
298.15 K, m1 = 0.0564 | 998.25 | 1510.3 | 0.9494
298.15 K, m1 = 0.0658 | 998.45 | 1512.1 | 0.9592
298.15 K, m1 = 0.0847 | 998.86 | 1515.5 | 0.9789
298.15 K, m1 = 0.113 | 999.46 | 1520.9 | 1.009
298.15 K, m1 = 0.174 | 1000.77 | 1533.3 | 1.073
298.15 K, m1 = 0.2336 | 1002.05 | 1545.1 | 1.135
298.15 K, m1 = 0.2813 | 1003.07 | 1554.3 | 1.185
303.15 K, m1 = 0.0282 | 996.22 | 1517.7 | 0.8225
303.15 K, m1 = 0.0438 | 996.54 | 1521.6 | 0.8362
303.15 K, m1 = 0.0564 | 996.8 | 1524.6 | 0.8473
303.15 K, m1 = 0.0658 | 996.99 | 1526.7 | 0.8555
303.15 K, m1 = 0.0847 | 997.38 | 1530.7 | 0.8722
303.15 K, m1 = 0.113 | 997.96 | 1536.2 | 0.8971
303.15 K, m1 = 0.174 | 999.21 | 1547.8 | 0.951
303.15 K, m1 = 0.2336 | 1000.44 | 1558.6 | 1.004
303.15 K, m1 = 0.2813 | 1001.42 | 1566.7 | 1.046
308.15 K, m1 = 0.0282 | 994.58 | 1527.2 | 0.7395
308.15 K, m1 = 0.0438 | 994.89 | 1530.9 | 0.7505
308.15 K, m1 = 0.0564 | 995.14 | 1533.7 | 0.7595
308.15 K, m1 = 0.0658 | 995.32 | 1535.9 | 0.7662
308.15 K, m1 = 0.0847 | 995.7 | 1539.9 | 0.7796
308.15 K, m1 = 0.113 | 996.25 | 1545.9 | 0.7997
308.15 K, m1 = 0.174 | 997.45 | 1557.5 | 0.8432
308.15 K, m1 = 0.2336 | 998.62 | 1568.4 | 0.8857
308.15 K, m1 = 0.2813 | 999.56 | 1576.3 | 0.9199
313.15 K, m1 = 0.0282 | 992.74 | 1536.3 | 0.6725
313.15 K, m1 = 0.0438 | 993.04 | 1540 | 0.6832
313.15 K, m1 = 0.0564 | 993.27 | 1542.7 | 0.6919
313.15 K, m1 = 0.0658 | 993.45 | 1544.8 | 0.6983
313.15 K, m1 = 0.0847 | 993.81 | 1548.8 | 0.7113
313.15 K, m1 = 0.113 | 994.34 | 1554.2 | 0.7308
313.15 K, m1 = 0.174 | 995.49 | 1564.7 | 0.7728
313.15 K, m1 = 0.2336 | 996.62 | 1572 | 0.814
313.15 K, m1 = 0.2813 | 997.52 | 1578 | 0.847
